Columns and labels:
SMARCA2 = molecular target: T1, SMARCA2 (Homo sapiens, UniProt P51531); assay: SMARCA2 Cellular Degradation Assay (Western blot analysis on Jess platform); assay type: cell-based; settings: for DC50 / Dmax: cellular degradation; for Fold Selectivity SMARCA4/2: ratio DC50 SMARCA4 / DC50 SMARCA2
T1 construct: endogenous in cells
Procedure, shortened: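 Readout: Jess Simple Western of tumor-extracted cell lysates, SMARCA2 area over actin area after background subtraction, shown as percentage of vehicle control.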

SMARCA4 = molecular target: T2, SMARCA4 (Homo sapiens, UniProt P51532); assay: Cellular degradation assay, SMARCA4 (Table 1); assay type: cell-based
T2 construct: endogenous in cells
T2 sequence (P51532 whole entry, species assumed): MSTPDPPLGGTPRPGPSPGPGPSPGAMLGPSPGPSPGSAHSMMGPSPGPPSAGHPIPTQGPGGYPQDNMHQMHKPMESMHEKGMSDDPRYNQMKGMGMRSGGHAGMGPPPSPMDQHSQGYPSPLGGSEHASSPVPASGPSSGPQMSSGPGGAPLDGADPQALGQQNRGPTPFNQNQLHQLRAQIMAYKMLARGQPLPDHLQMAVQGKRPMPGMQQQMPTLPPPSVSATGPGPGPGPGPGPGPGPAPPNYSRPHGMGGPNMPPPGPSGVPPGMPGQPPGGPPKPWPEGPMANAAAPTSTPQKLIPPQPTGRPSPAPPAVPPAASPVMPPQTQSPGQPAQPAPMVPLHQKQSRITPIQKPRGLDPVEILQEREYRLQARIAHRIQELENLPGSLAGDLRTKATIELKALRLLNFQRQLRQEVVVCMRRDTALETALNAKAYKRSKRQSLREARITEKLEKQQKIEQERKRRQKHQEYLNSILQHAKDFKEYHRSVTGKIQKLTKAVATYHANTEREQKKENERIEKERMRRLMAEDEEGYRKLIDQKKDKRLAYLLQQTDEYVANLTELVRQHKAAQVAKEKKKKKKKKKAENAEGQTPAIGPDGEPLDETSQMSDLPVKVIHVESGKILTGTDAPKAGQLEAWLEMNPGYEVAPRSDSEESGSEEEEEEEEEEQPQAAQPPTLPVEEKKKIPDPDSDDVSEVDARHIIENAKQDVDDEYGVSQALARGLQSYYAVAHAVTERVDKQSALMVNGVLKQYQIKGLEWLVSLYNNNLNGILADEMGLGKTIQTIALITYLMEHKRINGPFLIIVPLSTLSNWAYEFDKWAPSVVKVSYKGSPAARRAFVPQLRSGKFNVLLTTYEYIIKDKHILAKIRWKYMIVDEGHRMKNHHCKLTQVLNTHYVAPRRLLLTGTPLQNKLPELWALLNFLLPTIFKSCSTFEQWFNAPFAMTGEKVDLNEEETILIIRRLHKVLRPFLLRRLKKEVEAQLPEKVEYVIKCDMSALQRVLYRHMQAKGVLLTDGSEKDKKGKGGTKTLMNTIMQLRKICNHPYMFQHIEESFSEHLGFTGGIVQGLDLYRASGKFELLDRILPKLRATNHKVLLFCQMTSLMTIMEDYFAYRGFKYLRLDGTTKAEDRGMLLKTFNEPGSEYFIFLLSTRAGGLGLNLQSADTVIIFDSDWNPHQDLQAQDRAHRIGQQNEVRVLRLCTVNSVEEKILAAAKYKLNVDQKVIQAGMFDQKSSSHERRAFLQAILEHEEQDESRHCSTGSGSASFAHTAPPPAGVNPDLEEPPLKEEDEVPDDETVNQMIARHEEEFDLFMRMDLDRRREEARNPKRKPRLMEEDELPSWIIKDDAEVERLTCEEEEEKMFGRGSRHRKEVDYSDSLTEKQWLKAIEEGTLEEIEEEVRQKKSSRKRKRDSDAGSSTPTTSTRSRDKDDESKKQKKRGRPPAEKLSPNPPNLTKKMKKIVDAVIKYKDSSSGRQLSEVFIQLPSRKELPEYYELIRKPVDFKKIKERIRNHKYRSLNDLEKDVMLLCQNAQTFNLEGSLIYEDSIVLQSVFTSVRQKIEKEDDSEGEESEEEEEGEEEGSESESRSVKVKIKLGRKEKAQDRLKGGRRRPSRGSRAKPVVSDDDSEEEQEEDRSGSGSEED

T1 sequence (P51531 whole entry, species assumed): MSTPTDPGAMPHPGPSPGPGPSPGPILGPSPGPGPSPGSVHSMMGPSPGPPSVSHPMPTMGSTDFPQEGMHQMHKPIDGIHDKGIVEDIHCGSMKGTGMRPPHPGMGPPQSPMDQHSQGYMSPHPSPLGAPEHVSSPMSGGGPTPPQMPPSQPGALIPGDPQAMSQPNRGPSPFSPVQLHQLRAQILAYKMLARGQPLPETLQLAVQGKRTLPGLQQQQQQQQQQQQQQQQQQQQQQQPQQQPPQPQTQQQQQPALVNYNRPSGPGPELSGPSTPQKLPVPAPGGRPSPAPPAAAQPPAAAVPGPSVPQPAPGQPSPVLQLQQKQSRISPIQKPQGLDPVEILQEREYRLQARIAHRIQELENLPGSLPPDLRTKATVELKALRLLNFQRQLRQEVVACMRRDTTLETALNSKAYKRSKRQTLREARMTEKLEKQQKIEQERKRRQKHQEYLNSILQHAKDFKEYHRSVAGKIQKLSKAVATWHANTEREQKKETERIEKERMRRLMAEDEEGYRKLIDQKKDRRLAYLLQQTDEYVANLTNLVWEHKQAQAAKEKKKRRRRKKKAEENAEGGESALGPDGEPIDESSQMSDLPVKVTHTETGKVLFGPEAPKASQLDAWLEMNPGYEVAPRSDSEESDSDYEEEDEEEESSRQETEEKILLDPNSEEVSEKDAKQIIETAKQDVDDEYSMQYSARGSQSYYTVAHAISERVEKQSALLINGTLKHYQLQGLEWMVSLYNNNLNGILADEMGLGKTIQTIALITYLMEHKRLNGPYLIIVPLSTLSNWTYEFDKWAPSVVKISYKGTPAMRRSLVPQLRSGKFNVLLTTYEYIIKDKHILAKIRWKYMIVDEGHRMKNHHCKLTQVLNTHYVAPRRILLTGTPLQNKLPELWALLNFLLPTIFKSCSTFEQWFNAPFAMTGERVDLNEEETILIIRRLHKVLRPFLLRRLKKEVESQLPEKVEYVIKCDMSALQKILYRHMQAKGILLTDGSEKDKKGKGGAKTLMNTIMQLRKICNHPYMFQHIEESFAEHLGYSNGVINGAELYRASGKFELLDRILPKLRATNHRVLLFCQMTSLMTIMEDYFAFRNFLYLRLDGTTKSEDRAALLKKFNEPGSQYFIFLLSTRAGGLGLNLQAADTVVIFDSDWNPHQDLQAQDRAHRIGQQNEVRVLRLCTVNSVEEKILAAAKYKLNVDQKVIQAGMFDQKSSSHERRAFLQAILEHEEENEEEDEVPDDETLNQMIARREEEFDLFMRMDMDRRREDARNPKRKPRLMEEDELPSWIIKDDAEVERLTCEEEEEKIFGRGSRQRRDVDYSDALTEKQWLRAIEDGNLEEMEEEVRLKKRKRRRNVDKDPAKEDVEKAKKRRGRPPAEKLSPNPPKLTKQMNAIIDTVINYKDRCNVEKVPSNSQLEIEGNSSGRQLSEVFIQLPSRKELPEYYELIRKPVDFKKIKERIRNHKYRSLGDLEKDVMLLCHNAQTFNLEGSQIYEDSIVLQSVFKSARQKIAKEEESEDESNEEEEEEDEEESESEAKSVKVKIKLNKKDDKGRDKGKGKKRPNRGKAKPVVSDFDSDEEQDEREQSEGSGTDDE

Cn1c(=O)n(C2CCC(=O)NC2=O)c2cccc(N3CCN(CC(=O)N4CC5(C4)CN(C(=O)C4(c6ccccc6)CCN(c6cnnc(-c7ccccc7O)c6)CC4)C5)CC3)c21 (racemic) [Example 126, rac-(3R)-3-(4-{4-[2-(6-{1-[6-(2-hydroxyphenyl)pyridazin-4-yl]-4-phenylpiperidine-4-carbonyl}-2,6-diazaspiro[3.3]heptan-2-yl)-2-oxoethyl]piperazin-1-yl}-3-methyl-2-oxo-2,3-dihydro-1H-1,3-benzodiazol-1-yl)piperidine-2,6-dione]
DC50 (SMARCA2): 32.8 nM | Dmax (SMARCA2): 80.9% | Fold Selectivity SMARCA4/2 (SMARCA2): 304 | Dmax (SMARCA4): 32.2%

O=C1CC[C@H](c2ccc(N3CCC(CCN4CC5CCC(C4)C5C(=O)NCC4(c5ccccc5)CCN(c5cnnc(-c6ccccc6O)c5)CC4)CC3)cc2)C(=O)N1 (mixture of isomers) [Example 144, rac-3-(2-(1-(4-((r)-2,6-dioxopiperidin-3-yl)phenyl)piperidin-4-yl)ethyl)-n-((1-(6-(2-hydroxyphenyl)pyridazin-4-yl)-4-phenylpiperidin-4-yl)methyl)-3-azabicyclo[3.2.1]octane-8-carboxamide]
DC50 (SMARCA2): 1.36 nM | Dmax (SMARCA2): 93.7% | Fold Selectivity SMARCA4/2 (SMARCA2): 10 | DC50 (SMARCA4): 13.4 nM | Dmax (SMARCA4): 80.7%

O=C1CC[C@H](c2ccc(N3CCC(CN4CC5(C4)CN(C(=O)C4(Oc6ccccc6Cl)CCN(c6cnnc(-c7ccccc7O)c6)CC4)C5)CC3)cc2)C(=O)N1 [Example 119, (r)-3-(4-(4-((6-(4-(2-chlorophenoxy)-1-(6-(2-hydroxyphenyl)pyridazin-4-yl)piperidine-4-carbonyl)-2,6-diazaspiro[3.3]heptan-2-yl)methyl)piperidin-1-yl)phenyl)piperidine-2,6-dione]
DC50 (SMARCA2): 3.52 nM | Dmax (SMARCA2): 89.2% | Fold Selectivity SMARCA4/2 (SMARCA2): 6 | DC50 (SMARCA4): 20.3 nM | Dmax (SMARCA4): 79.4%

O=C1CC[C@H](c2ccc(N3CCC(CCN4CCC[C@@H]4C(=O)NCC4(c5ccccc5)CCN(c5cnnc(-c6ccccc6O)c5)CC4)CC3)cc2)C(=O)N1 (racemic) [Example 107, (r)-1-(2-(1-(4-((rs)-2,6-dioxopiperidin-3-yl)phenyl)piperidin-4-yl)ethyl)-n-((1-(6-(2-hydroxyphenyl)pyridazin-4-yl)-4-phenylpiperidin-4-yl)methyl)pyrrolidine-2-carboxamide]
DC50 (SMARCA2): 41.3 nM | Dmax (SMARCA2): 58.8% | Fold Selectivity SMARCA4/2 (SMARCA2): 242 | Dmax (SMARCA4): 29.4%

O=C1CC[C@H](c2ccc(N3CCC(CCN4CCC(OCC(F)(F)F)(C(=O)NCC5(c6ccccc6)CCN(c6cnnc(-c7ccccc7O)c6)CC5)CC4)CC3)cc2)C(=O)N1 (racemic) [Example 105, rac-(r)-1-(2-(1-(4-(2,6-dioxopiperidin-3-yl)phenyl)piperidin-4-yl)ethyl)-n-((1-(6-(2-hydroxyphenyl)pyridazin-4-yl)-4-phenylpiperidin-4-yl)methyl)-4-(2,2,2-trifluoroethoxy)piperidine-4-carboxamide]
DC50 (SMARCA2): 4.98 nM | Dmax (SMARCA2): 92.2% | Fold Selectivity SMARCA4/2 (SMARCA2): 12 | DC50 (SMARCA4): 57.5 nM | Dmax (SMARCA4): 73.1%

CN(C(=O)C1(Oc2ccn(C)n2)CCN(c2cnnc(-c3ccccc3O)c2)CC1)C1CCN(C(=O)CN2CCC(c3ccc([C@@H]4CCC(=O)NC4=O)cc3)CC2)CC1 (racemic) [Example 110, rac-n-(1-(2-(4-(4-(2,6-dioxopiperidin-3-yl)phenyl)piperidin-1-yl)acetyl)piperidin-4-yl)-1-(6-(2-hydroxyphenyl)pyridazin-4-yl)-n-methyl-4-((1-methyl-1h-pyrazol-3-yl)oxy)piperidine-4-carboxamide]
DC50 (SMARCA2): 16.7 nM | Dmax (SMARCA2): 80.8% | Fold Selectivity SMARCA4/2 (SMARCA2): 16 | DC50 (SMARCA4): 273 nM | Dmax (SMARCA4): 56.9%

O=C1CC[C@H](c2ccc(N3CCC(CN4CCCC5C4CCCN5C(=O)C4(c5ccccc5)CCN(c5cnnc(-c6ccccc6O)c5)CC4)CC3)cc2)C(=O)N1 (stereo partly drawn) [Example 41, (3R)-3-(4-{4-[(5-{1-[6-(2-hydroxyphenyl)pyridazin-4-yl]-4-phenylpiperidine-4-carbonyl}-decahydro-1,5-naphthyridin-1-yl)methyl]piperidin-1-yl}phenyl)piperidine-2,6-dione]
Dmax (SMARCA2): 36.8% | Fold Selectivity SMARCA4/2 (SMARCA2): 1 | Dmax (SMARCA4): 41%

CN(C(=O)C1(OC2CCCCC2)CCN(c2cnnc(-c3ccccc3O)c2)CC1)C1CCN(C(=O)CN2CCC(c3ccc([C@@H]4CCC(=O)NC4=O)cc3)CC2)CC1 (racemic) [Example 117, rac-4-(cyclohexyloxy)-n-(1-(2-(4-(4-(2,6-dioxopiperidin-3-yl)phenyl)piperidin-1-yl)acetyl)piperidin-4-yl)-1-(6-(2-hydroxyphenyl)pyridazin-4-yl)-n-methylpiperidine-4-carboxamide]
DC50 (SMARCA2): 16.7 nM | Dmax (SMARCA2): 82.1% | Fold Selectivity SMARCA4/2 (SMARCA2): 9 | DC50 (SMARCA4): 153 nM | Dmax (SMARCA4): 62.4%

Cn1c(=O)n(C2CCC(=O)NC2=O)c2ccc(N3CCC(CN4CCC(NC(=O)C5(c6ccccc6)CCN(c6cnnc(-c7ccccc7O)c6)CC5)CC4)CC3)cc21 (racemic) [Example 158, rac-N-{1-[(1-{1-[(3R)-2,6-dioxopiperidin-3-yl]-3-methyl-2-oxo-2,3-dihydro-1H-1,3-benzodiazol-5-yl}piperidin-4-yl)methyl]piperidin-4-yl}-1-[6-(2-hydroxyphenyl)pyridazin-4-yl]-4-phenylpiperidine-4-carboxamide]
DC50 (SMARCA2): 0.44 nM | Dmax (SMARCA2): 92% | Fold Selectivity SMARCA4/2 (SMARCA2): 3 | DC50 (SMARCA4): 1.36 nM | Dmax (SMARCA4): 88.5%

Cc1ccnn1C1(C(=O)N(C)C2CCN(CCC3CCN(c4ccc(C5CCC(=O)NC5=O)c(F)c4)CC3)CC2)CCN(c2cnnc(-c3ccccc3O)c2)CC1 (racemic) [Example 65, rac-N-{1-[2-(1-{4-[(3R)-2,6-dioxopiperidin-3-yl]-3-fluorophenyl}piperidin-4-yl)ethyl]piperidin-4-yl}-1-[6-(2-hydroxyphenyl)pyridazin-4-yl]-n-methyl-4-(5-methyl-1H-pyrazol-1-yl)piperidine-4-carboxamide]
DC50 (SMARCA2): 3.33 nM | Dmax (SMARCA2): 89.2% | Fold Selectivity SMARCA4/2 (SMARCA2): 27 | DC50 (SMARCA4): 88.6 nM | Dmax (SMARCA4): 55.4%

Cn1ccc(OC2(C(=O)N3CC4(CN(CCC5CCN(c6cccc7c6n(C)c(=O)n7C6CCC(=O)NC6=O)CC5)C4)C3)CCN(c3cnnc(-c4ccccc4O)c3)CC2)n1 (racemic) [Example 67, rac-3-(4-(4-(2-(6-(1-(6-(2-hydroxyphenyl)pyridazin-4-yl)-4-((1-methyl-1H-pyrazol-3-yl)oxy)piperidine-4-carbonyl)-2,6-diazaspiro[3.3]heptan-2-yl)ethyl)piperidin-1-yl)-3-methyl-2-oxo-2,3-dihydro-1h-benzo[d]imidazol-1-yl)piperidine-2,6-dione]
DC50 (SMARCA2): 0.4 nM | Dmax (SMARCA2): 96.2% | Fold Selectivity SMARCA4/2 (SMARCA2): 51 | DC50 (SMARCA4): 20.4 nM | Dmax (SMARCA4): 72.9%

O=C1CCC(c2ccc(N3CCOC4(CCN(CC(=O)N5CCC6(CC5)CN(C(=O)C5(c7ccccc7)CCN(c7cnnc(-c8ccccc8O)c7)CC5)C6)CC4)C3)cc2)C(=O)N1 (racemic) [Example 152, rac-(3R)-3-(4-{9-[2-(2-{1-[6-(2-hydroxyphenyl)pyridazin-4-yl]-4-phenylpiperidine-4-carbonyl}-2,7-diazaspiro[3.5]nonan-7-yl)-2-oxoethyl]-1-oxa-4,9-diazaspiro[5.5]undecan-4-yl}phenyl)piperidine-2,6-dione]
DC50 (SMARCA2): 68.2 nM | Dmax (SMARCA2): 66.5% | Fold Selectivity SMARCA4/2 (SMARCA2): 147 | Dmax (SMARCA4): 45.4%

CN(CC1(c2ccccc2)CCN(c2cnnc(-c3ccccc3O)c2)CC1)C1CCN(C(=O)C2CCN(c3ccc(C4CCC(=O)NC4=O)cc3)CC2)CC1 (racemic) [Example 142, rac-(r)-3-(4-(4-(4-(((1-(6-(2-hydroxyphenyl)pyridazin-4-yl)-4-phenylpiperidin-4-yl)methyl)(methyl)amino)piperidine-1-carbonyl)piperidin-1-yl)phenyl)piperidine-2,6-dione]
DC50 (SMARCA2): 24.5 nM | Dmax (SMARCA2): 69.9% | Fold Selectivity SMARCA4/2 (SMARCA2): 3 | DC50 (SMARCA4): 84.8 nM | Dmax (SMARCA4): 60%

CN(C(=O)C1(c2ccncc2)CCN(c2cnnc(-c3ccccc3O)c2)CC1)C1CCN(CCC2CCN(c3ccc(C4CCC(=O)NC4=O)c(F)c3)CC2)CC1 (racemic) [Example 75, rac-N-{1-[2-(1-{4-[(3R)-2,6-dioxopiperidin-3-yl]-3-fluorophenyl}piperidin-4-yl)ethyl]piperidin-4-yl}-1-[6-(2-hydroxyphenyl)pyridazin-4-yl]-n-methyl-4-(pyridin-4-yl)piperidine-4-carboxamide]
DC50 (SMARCA2): 2.18 nM | Dmax (SMARCA2): 90% | Fold Selectivity SMARCA4/2 (SMARCA2): 4587 | Dmax (SMARCA4): 35.3%

CC1(C)CC(NC(=O)C2(c3ccccc3)CCN(c3cnnc(-c4ccccc4O)c3)CC2)CCN1CC1CCN(c2ccc([C@H]3CCC(=O)NC3=O)cc2)CC1 (stereo partly drawn) [Example 183, N-{1-[(1-{4-[(3R)-2,6-dioxopiperidin-3-yl]phenyl}piperidin-4-yl)methyl]-2,2-dimethylpiperidin-4-yl}-1-[6-(2-hydroxyphenyl)pyridazin-4-yl]-4-phenylpiperidine-4-carboxamide]
DC50 (SMARCA2): 6.43 nM | Dmax (SMARCA2): 80.7% | Fold Selectivity SMARCA4/2 (SMARCA2): 39 | DC50 (SMARCA4): 249 nM | Dmax (SMARCA4): 56.2%

O=C1CC[C@H](c2ccc(N3CC[C@]4(C3)C[C@@H](N3CC5(CCN(C(=O)C6(c7ccccc7)CCN(c7cnnc(-c8ccccc8O)c7)CC6)CC5)C3)C4)cc2)C(=O)N1 (racemic) [Example 129, (3RS&)-3-{4-[(2rs,4sr)-2-(7-{1-[6-(2-hydroxyphenyl)pyridazin-4-yl]-4-phenylpiperidine-4-carbonyl}-2,7-diazaspiro[3.5]nonan-2-yl)-6-azaspiro[3.4]octan-6-yl]phenyl}piperidine-2,6-dione]
DC50 (SMARCA2): 20.3 nM | Dmax (SMARCA2): 78.2% | Fold Selectivity SMARCA4/2 (SMARCA2): 6 | DC50 (SMARCA4): 125 nM | Dmax (SMARCA4): 61%
